pEC50, pIC50: −log10 of the molar value. Entries after “also recorded” stand apart in the source; their conditions may differ. Like-named read-outs stand apart in the source and are kept apart here.

The subject of one data set is IMR90 cells. The experiment in a line: In vitro screening of the 14 in silico-selected compounds, surviving cell count, proliferating vs senescent IMR90. In kind it is cell-based, Homo sapiens. Conditions: 48 h; for effect on non-senescent IMR90 cells: PD15-PD17, 1 μM; for senolytic activity on senescent IMR90 cells: PD19-PD21, 1 μM. The text has this: (§1) IMR90 and WI38 lung fibroblasts were purchased from ECACC‐Merck. Human bone marrow (BM)‐derived mesenchymal stromal cells (MSCs) were purchased from Lonza. Human umbilical vein endothelial cells (HUVECs) are primary cells obtained from a pool of donors purchased from Clonetics (Lonza). Murine ear fibroblasts (MearFs) were obtained from C57BL/6J mice maintained in the INRCA “Specific Pathogen Free” (SPF) animal facility. MCF7 breast cancer cells were purchased from ATCC. For dose–response curves, IMR90 and WI38 were induced to senescence through replicative passages; MSCs, HUVECs, and MearFs senescence was induced with Doxorubicin; MCF7 senescence was induced with 4‐Hydroxytamoxifen (Lee et al. [2014]). The EC50 was calculated using GraphPad Prism 10 software. All treatment specifications are reported in the extended section.
Cell culture and treatment. IMR90 cells (Homo sapiens, fetal lung, fibroblast) and WI38 cells (Homo sapiens, fetal lung, fibroblast) were purchased from ECACC-Merck (Merck, Darmstadt, Germany) and cultured in MEM medium (Euroclone, Milano, Italy) supplemented with 1% L-Glutamine (Euroclone, Milano, Italy), 1% Penicillin-Streptomycin (Euroclone, Milano, Italy), and 10% Fetal Bovine Serum (FBS, Euroclone, Milano, Italy), at 37°C, 5% CO2. IMR90 cells with a population doubling (PD) from PD15 to PD23 were used; cells were considered incrementally senescent from passage PD19 to passage PD23. WI38 cells were used from PD26 to PD53. Cells were considered incrementally senescent from passage PD49 to passage PD53. For the compounds in vitro screening, IMR90 cells with passages from PD15 to PD23 were tested at increasing concentrations of 0.5 μM, 1 μM, 10 μM, and 25 μM over 24 and 48 h to evaluate the compounds' efficacy and cytotoxicity compared to the Vehicle (DMSO ≤ 0.1%). Cells were counted manually, in triplicate, using Trypan blue reagent (Euroclone) and disposable Bürker chambers. […] K5 dose-response proliferation curves were performed with compound K5 (Molport, SIA, Riga, Latvia) in concentrations 0.1, 0.5, 1, 5, 10, 50, 100, and 200 μM for 48 h. Cells were counted using a Trypan blue reagent and EVAplus cell counter. The EC50s were calculated by analyzing the data using GraphPad Prism 10 software.

A short description of data set [1]: Thermodynamic solubility, shake flask method. The note with it: PBS buffer; PBS pH 7.4, 24 h at 37°C. In kind it is physicochemical. The procedure: APHAD S.r.l (Buccinasco, MI, Italy) performed all evaluations. Detailed protocols are reported in the extended methods section.
Thermodynamic solubility. The shake flask method measured the thermodynamic solubility of K4 and K5 in PBS buffers at pH 7.4. A saturated solution of the compounds was prepared by incubating the 2 compounds in PBS buffer for 24 h at 37°C under agitation. At the end of the incubation, samples were centrifuged, two aliquots were diluted in acetonitrile (CAN), and each sample was then injected into LC-MS/MS (ESI interface) and quantified on a calibration curve prepared by sequential dilution in ACN. Samples were analyzed on UPLC Acquity (Waters) interfaced with API 3200 (AB Sciex) Triple Quadrupole Mass spectrometer. For K4, a Synergy Polar C18 column was used (50x2, 1mm 5µm, Phenomenex, Temp 35°C, Inj volume 10 µL, mobile phase A: water +0.1% FA, and phase B: ACN 0.1% FA, gradient: 5%-98% B, flow: 0.3 mL/min). For K5, a Gemini NX C18 column was used (50x2, 1mm 5µm, Phenomenex, Temp 35°C, Inj volume 10 µL, mobile phase A: 5mM ammonium formate +0.1% FA, and phase B: MeOH +5%, gradient: 5%-98% B, flow: 0.3 mL/min).

The target of a further data set is HSP90α (Homo sapiens, UniProt P07900). The experiment in a line: HSP90 N-Terminal Domain Assay Kit, fluorescence polarization competition with FITC-Geldanamycin. In kind it is binding. Further details: purchased BPS Bioscience 50293. The note with it: dose-response 1 pM to 10 μM, n = 3, extrapolated with GraphPad Prism; read-out: HSP90α inhibition IC50. The method, then:
HSP90‐directed inhibitory activity was assessed employing the HSP90 N‐Terminal Domain Assay Kit (BPS Bioscience) according to the manufacturer's instructions. The fluorescence intensity was measured with a multiplate reader (Victor Nivo‐Perkin Elmer). The IC50 was calculated by analyzing the data using GraphPad Prism 10 software.
HSP90 inhibition activity assay. […] […] […] Data are the percentage of residual enzyme activity relative to the solvent (DMSO). The IC50s were calculated by analyzing the data using GraphPad Prism 10 software.

Data set [2] deals with Mouse ear fibroblasts (MearF). The experiment in a line: MTT viability of Doxorubicin-induced senescent and non-senescent murine ear fibroblasts. In kind it is cell-based, C57BL/6J mice. Conditions: for pEC50: Mus musculus, Fibroblast.
Excerpt: as §1
Cell viability was determined using an MTT assay. Absorbance was measured using a NB‐12‐0035 Microplate Reader (NeoBiotech Co.). Data are expressed as a percentage of viability compared with untreated cells.
Murine ear fibroblasts (MearFs) were obtained from C57BL/6J mice maintained in the INRCA "Specific Pathogen Free" (SPF) animal facility. The ear biopsies (2 mm radius) were obtained with a dedicated puncher, and cells recovered as previously described (Malavolta et al. 2022). Cells were seeded at a density of 5000/cm^2 in T75 flasks (Corning Costar, Sigma Aldrich, St. Louis, MO, USA) and maintained at 37°C in a 95% humidified incubator with 5% CO2. Culture was carried out in RPMI (Euroclone, Milano, Italy) supplemented with 10% Fetal Calf Serum (FCS, Sigma-Aldrich, St. Louis, MO, USA), 2mM L-Glutamine, 100 U/mL penicillin and […] streptomycin (all from Sigma- Aldrich, St. Louis, MO, USA). At approximately 80% confluence, the cells were detached from the plate by incubation with trypsin-EDTA (Sigma-Aldrich, St. Louis, MO, USA) for 5 min at 37 °C and re-plated. For Doxorubicin-induced senescence, cells were seeded in a 96-well plate at a 5000 cells/cm2 density. MSC cells were treated with 100 nM Doxorubicin (DOX) for 24 h and then maintained with medium for 4 days; HUVECs were treated with 50 nM DOX for 24 h and then maintained with medium for 4 days. MearFs were induced to senescence by continuous exposure (5 days) to 75 nM DOX. […]
Cell viability assay. Cell viability has been determined with MTT (3-(4,5-dimethylthiazol-2-yl)-2, 5-diphenyltetrazolium bromide) assay. […] Insoluble formazan salts produced were solubilized with DMSO incubation, and then absorbance was measured at 540 nm using a microplate reader (NB-12-0035 Microplate Reader, NeoBiotech Co., Seoul, Republic of Korea). Data are expressed as a percentage of viability compared with untreated cells (the control group has been considered 100% of viability).

As a reminder, the solubility (thermodynamic) is solubility found after equilibrating the solid with the medium. For orientation: pIC50 means the negative decadic logarithm of the IC50, by convention in mol/L. With `CC(C)(C)S(=O)(=O)C/C(N)=N/OS(=O)(=O)c1ccc(F)cc1F` [Compound K4, (Z)-N'-[(2,4-difluorobenzenesulfonyl)oxy]-2-(2-methylpropane-2-sulfonyl)ethanimidamide], in the data set with IMR90 cells, the “effect on non-senescent IMR90 cells” value is recorded as “robust level of safety” and the “senolytic activity on senescent IMR90 cells” value is listed as “evident senolytic activity; also recorded: highest senolytic activity”. Also, in data set [1], the thermodynamic solubility at 24 h is approximately 400 µg/mL. Moreover, the pIC50 on HSP90α is 6.81.

Usually pEC50 stands for −log10 of the EC50, conventionally taken in molar units. Regarding `Cc1ccccc1-n1c(=O)n(Cc2ccccc2)c(=O)c2[nH]cnc21` [Compound K5, 1-benzyl-3-(2-methylphenyl)-7H-purine-2,6-dione], in the data set with IMR90 cells, the “effect on non-senescent IMR90 cells” value is recorded as “robust level of safety” and the “senolytic activity on senescent IMR90 cells” value was “evident senolytic activity; also recorded: highest senolytic activity”. Further, in data set [2] (DNA damage (Doxorubicin)), the “Senolytic evidence (no, partly/yes)” value was “No”. Further, the “difference in vitality, DOXO-induced senescent vs non-senescent proliferating cells” value in data set [2] (MTT) is reported as “no discernible difference”. In addition, the pEC50 in data set [2] (DNA damage (Doxorubicin), MTT, read-out: EC50 senescent cells) is less than 3.30. In addition, the pEC50 in data set [2] (MTT, read-out: EC50 proliferating cells) was less than 3.30. In addition, in data set [1], the solubility (thermodynamic) at 24 h is approximately 200 µg/mL. Also, on HSP90α, the pIC50 was 6.95.

The values above are taken from PMC12266748, “A Xanthine Derivative With Novel Heat Shock Protein 90‐Alpha Inhibitory and Senolytic Properties” (Aging Cell, 2025).
